# Data from article PMC9315981, “N-Phenacyldibromobenzimidazoles—Synthesis Optimization and Evaluation of Their Cytotoxic Activity” (Molecules, 2022).
# Like-named read-outs stand apart in the source and are kept apart here.
# Legend:
# [1] = tested on: MRC-5 (normal lung fibroblasts); assay: MTT-based viability assay, MRC-5; assay type: cell-based; settings: Homo sapiens, MRC5, 48 h of treatment, read-out: EC50 ± SD, MRC-5
# Protocol: (§1) To evaluate the cytotoxic activity of compounds 4a–j and 5a–5j, we performed an MTT test for three tumor cell lines, i.e.,: MCF-7 (breast adenocarcinoma), A-549 (lung adenocarcinoma), CCRF-CEM (acute lymphoblastic leukemia), and one normal cell line, MRC-5 (normal lung fibroblasts). The EC50 values, describing the half maximal effective concentration of each tested compound, were calculated and are summarized in Table 4. The representative sigmoidal dose–response curves are shown in Figure S2 (see Supporting Information S2).
# (§2) CCRF-CEM (ECACC 85112105) human acute lymphoblastic leukaemia and MRC-5 pd30 Human fetal lung fibroblasts (ECACC 05090501) were purchased from European Collection of Authenticated Cell Cultures, whereas A-549 (ATCC CCL 185) human lung carcinoma and MCF-7 (ATCC HTB-22) human breast adenocarcinoma cell line were purchased from American Type Culture Collection. A-549 and MCF-7 cell lines were cultured in high glucose DMEM (Biowest) supplemented with 10% fetal bovine serum (Biowest), 2 mM L-glutamine and antibiotics (100 U/mL penicillin, 100 µg/mL streptomycin). CCRF-CEM were cultured in RPMI 1640 supplemented with 10% fetal bovine serum (EuroClone), 2 mM L-glutamine and antibiotics (100 U/mL penicillin, 100 µg/mL streptomycin). MRC-5 pd30 human fibroblasts (ECACC) were cultured in MEME, Minimum Essential Medium Eagle (Merck) supplemented with 10% fetal bovine serum (Merck), 2 mM l-glutamine, antibiotics (100 U mL^−1 penicillin, 100 μg mL^−1 streptomycin, Merck) and 1% non-essential amino-acids (Merck). Cells were grown in 75 cm^2 cell culture flasks (Sarstedt, Nümbrecht, Germany), in a humidified atmosphere of CO2/air (5/95%) at 37 °C. All the experiments were performed in exponentially growing cultures. Stock solution of tested compounds were prepared in DMSO and stored in −20 °C for maximum one month. For the cytotoxicity studies, stock solutions were diluted 200-fold with the proper culture medium to obtain the final concentrations. For cytotoxicity studies 2-fold serial dilutions of the tested compounds were prepared in the proper medium in the range from 3.125 µM to 200 µM.
# (§3) After incubation with the test compounds, MTT test was performed as described previously. Optical densities were measured at 570 nm using BioTek microplate reader. All measurements were carried out in a minimum of three replicates.
# [2] = tested on: A-549 (lung adenocarcinoma); assay: MTT-based viability assay, A-549; assay type: cell-based; settings: Homo sapiens, A549, 48 h of treatment, read-out: EC50 ± SD, A-549
# Protocol: as §1, §2, §3
# [3] = tested on: MCF-7 (breast adenocarcinoma); assay: MTT-based viability assay, MCF-7; assay type: cell-based, human; settings: for EC50: Homo sapiens, MCF7, MTT, 48 h of treatment, read-out: EC50 ± SD, MCF-7; for SI (selectivity index), MCF-7: SI = EC50 for normal MRC-5 line/EC50 for MCF-7
# Protocol: as §1, §2, §3
# [4] = tested on: CCRF-CEM (acute lymphoblastic leukemia); assay: MTT-based viability assay, CCRF-CEM; assay type: cell-based, human; settings: for EC50: Homo sapiens, CCRF-CEM, MTT, 48 h of treatment, read-out: EC50 ± SD, CCRF-CEM; for SI (selectivity index), CCRF-CEM: SI = EC50 for normal MRC-5 line/EC50 for CCRF-CEM
# Protocol: as §1, §2, §3
# [5] = tested on: CCRF-CEM cells; assay: Detection of apoptosis by flow cytometry (annexin V-FITC/PI); assay type: cell-based, human; settings: 48 h; for induction of apoptosis: annexin V binding
# Protocol: CCRF-CEM cells were seeded in 24-well plates at 2 × 10^5 cells/well and treated with the tested compounds used in 15 µM, 30 µM, and 45 µM concentrations. After exposure to the examined compounds, the cells were collected, centrifugated at 200× g at 4 °C for 5 min, washed twice with cold phosphate–buffered saline (PBS), and subsequently suspended in binding buffer. Subsequently, 100-μL aliquots of the cell suspension were labelled according to the kit manufacturer’s instructions. Briefly, annexin V-fluorescein isothiocyanate, and propidium iodide (BD Biosciences, Pharmingen, San Diego, CA, USA) were added to the cell suspension, and the mixture was vortexed and then incubated for 15 min at RT in the dark. A cold binding buffer (400 μL) was then added and the cells were vortexed again and kept on ice. Flow cytometric measurements were performed within 1 h after labeling. Viable, necrotic, early, and late apoptotic cells were detected by FACSCanto II flow cytometer (BD Biosciences, San Diego, CA, USA) and analysed using BD FACSDiva software.
# Figure 2 Effect of compounds 4f, 5g, and 5j on the progression of apoptosis/necrosis in CCRF-CEM. Percentage of viable, early, and late apoptotic, and necrotic cells after 48 h of treatment with the tested compounds (A). Percentage of CCRF-CEM cells in late apoptosis (B). Cells were stained with annexin V-FITC and PI (propidium iodide). Flow cytometry analyses were run on FACSCanto II flow cytometer (BD Biosciences, San Diego, CA, USA) and analysed using BD FACSDiva software. Graphs represent mean values ± s.e.m. *** p < 0.001 relative to control; ns—not significant. Statistical analysis for three to six independent replicates was performed using a one-way ANOVA analysis (GraphPad Software Inc., San Diego, CA, USA).
# [6] = tested on: MCF-7 (breast adenocarcinoma); set-up: method as in PMID 28340404; settings: determined previously; read-out: EC50 ± SD, MCF-7; cited from earlier work
# [7] = tested on: CCRF-CEM (acute lymphoblastic leukemia); set-up: method as in PMID 28340404; settings: determined previously; read-out: EC50 ± SD, CCRF-CEM; cited from earlier work
# [8] = Solubility in DMSO (stock preparation); assay type: physicochemical
# From the text: However, among the tested compounds, the highest selectivity index was obtained for 5a (2.04) for MCF-7, respectively.
EC50 [2] [µM],EC50 [3] [µM],EC50 [4] [µM],solubility in DMSO [8],Structure (SMILES),EC50 [1] [µM],"SI (selectivity index), MCF-7 [3]","SI (selectivity index), CCRF-CEM [4]",induction of apoptosis ([5]; 45 µM),EC50 [6] [µM],EC50 [7] [µM],"cells in late apoptosis ([5]; 30 µM, annexin V-FITC/PI) [%]","percent of apoptotic cells ([5]; 45 µM, annexin V-FITC/PI) [%]"
51.1 ± 2.78,26.4 ± 0.8,27.5 ± 2.46,,"O=C(Cn1cnc2cc(Br)c(Br)cc21)c1ccc(Cl)c(Cl)c1 [Compound 4f, 2-(5,6-dibromo-1H-benzimidazol-1-yl)-1-(3,4-dichlorophenyl)ethanone]",48.5 ± 4.5,1.84,1.76,induced apoptosis effectively,,,,
76.6 ± 3.08,49.1 ± 5.58,56.6 ± 4.48,,O=C(Cn1cnc2cc(Br)c(Br)cc21)c1ccc(Cl)cc1 [Compound 4c],54.24 ± 0.52,1.10,0.96,,,,,
40 ± 5.78,32.8 ± 1.88,40.6 ± 2.39,,O=C(Cn1cnc2c(Br)cc(Br)cc21)c1ccc(Cl)c(Cl)c1 [Compound 5f],43.2 ± 12.1,1.32,1.06,,,,,
84.5 ± 3.09,45.93 ± 0.36,,,O=C(Cn1cnc2c(Br)cc(Br)cc21)c1ccc(F)cc1 [Compound 5b],49.2 ± 10.6,1.07,,,,,,
85.4 ± 3.16,42.2 ± 3.95,34.4 ± 2.3,,"O=C(Cn1cnc2c(Br)cc(Br)cc21)c1c(F)cc(F)cc1F [Compound 5j, 2-(4,6-dibromo-1H-benzimidazol-1-yl)-1-(2,4,6-trifluorophenyl)ethanone]",61 ± 5.64,1.45,1.77,induced apoptosis effectively,,,,
50.9 ± 2.84,27.8 ± 2.61,50.5 ± 1.52,,"O=C(Cn1cnc2c(Br)cc(Br)cc21)c1ccc(Br)cc1 [Compound 5d, 1-(4-bromophenyl)-2-(4,6-dibromo-1H-benzimidazol-1-yl)ethanone]",45.1 ± 5.73,1.62,0.89,,,,,
> 200,36.1 ± 1.47,,,O=C(Cn1cnc2cc(Br)c(Br)cc21)c1c(Cl)cc(Cl)cc1Cl [Compound 4g],13.7 ± 0.63,0.38,,,,,,
81.2 ± 6.68,28.4 ± 1.11,183 ± 7.84,,O=C(Cn1cnc2c(Br)cc(Br)cc21)c1ccccc1 [Compound 5a],57.9 ± 0.88,2.04,0.32,,,,,
46.7 ± 1.2,30.4 ± 2.31,42.5 ± 8.36,,O=C(Cn1cnc2c(Br)cc(Br)cc21)c1ccc(Cl)cc1 [Compound 5c],39.1 ± 8.41,1.29,0.92,,,,,
37.9 ± 1.72,29.6 ± 2.24,102 ± 8.62,,O=C(Cn1cnc2cc(Br)c(Br)cc21)c1cc(F)ccc1F [Compound 4i],47.8 ± 12,1.61,0.47,,,,,
36.4 ± 0.7,,,,"Brc1c(Br)c(Br)c2[nH]cnc2c1Br [4,5,6,7-tetrabromo-1H-benzimidazole]",,,,,23.6 ± 0.1,18.1 ± 0.6,,
54.5 ± 1.58,33 ± 2.63,44.1 ± 3.04,,O=C(Cn1cnc2cc(Br)c(Br)cc21)c1ccc(F)cc1 [Compound 4b],56.1 ± 4.33,1.70,1.27,,,,,
94.3 ± 6.47,37.6 ± 3.58,40.7 ± 1.03,,O=C(Cn1cnc2cc(Br)c(Br)cc21)c1c(F)cc(F)cc1F [Compound 4j],48.8 ± 9.07,1.30,1.20,,,,,
111 ± 11.7,37.6 ± 3.4,78.1 ± 5.58,,O=C(Cn1cnc2cc(Br)c(Br)cc21)c1ccccc1 [Compound 4a],51.4 ± 1.62,1.37,0.66,,,,,
67.98 ± 0.41,60.3 ± 6.2,61.1 ± 2.76,,O=C(Cn1cnc2cc(Br)c(Br)cc21)c1ccc(Cl)cc1Cl [Compound 4e],,0.95,0.94,,,,,
46 ± 3.42,27.4 ± 1.57,38.4 ± 1.39,,O=C(Cn1cnc2c(Br)cc(Br)cc21)c1ccc(Cl)cc1Cl [Compound 5e],34.4 ± 7.83,1.25,0.89,,,,,
41.3 ± 3.2,24 ± 2.33,26.6 ± 0.31,,"O=C(Cn1cnc2c(Br)cc(Br)cc21)c1c(Cl)cc(Cl)cc1Cl [Compound 5g, 2-(4,6-dibromo-1H-benzimidazol-1-yl)-1-(2,4,6-trichlorophenyl)ethanone]",26.9 ± 1.62,1.12,1.01,induced apoptosis effectively,,,32,75.6
82.7 ± 10.6,44.8 ± 6.33,46.2 ± 3.24,,O=C(Cn1cnc2c(Br)cc(Br)cc21)c1cc(F)ccc1F [Compound 5i],48.07 ± 0.04,1.07,1.04,,,,,
,,,sparingly soluble in DMSO,O=C(Cn1cnc2cc(Br)c(Br)cc21)c1ccc(Br)cc1 [Compound 4d],,,,,,,,
54.1 ± 4.05,41.2 ± 3.85,59.9 ± 4.4,,O=C(Cn1cnc2cc(Br)c(Br)cc21)c1ccc(F)cc1F [Compound 4h],57.6 ± 0.71,1.40,0.96,,,,,
61.26 ± 0.45,37 ± 2.15,51.2 ± 1.06,,O=C(Cn1cnc2c(Br)cc(Br)cc21)c1ccc(F)cc1F [Compound 5h],,1.23,0.89,,,,,
